Reference: patent US8946478B2, “Benzamide derivative with anticancer activity and preparation method and use thereof” (Zhejiang Hisun Pharmaceutical Co., Ltd., priority 2010, dated 2015)

Tests used:
[1] = system: human pancreatic cancer PANC-1; assay: In vitro SRB tumor cell growth inhibition (GI50); format: cell-based; settings: PANC-1 cells
Method: (§1) Human colon cancer cell strains (Colo205 and HCT-116), human breast cancer cell strains (MCF-7 and MDA-MB435), human lung cancer cell strains (A549, 95D and NCI460), human ovarian cancer cell strains (OVCAR-5, OVCAR-8, HO8910 and SKOV-3), human leukemia (HL-60 and K562), human prostate cancer (DU145 and BXPC-3), human uterine cancer (Hela), human pancreatic cancer (PANC-1), human hepatoma (HepG 2) were all obtained from ATCC. Colo205, HL-60, K562 cells were cultured in RPMI 1640 containing 2 mM/L glutamine, 10% FBS, 1.0 mM sodium pyruvate. HCT-116, MCF-7, A549, 95D, HO8910, NCI460, OVCAR-5, OVCAR-8, DU145, BXPC-3, Hela, PANC-1, HepG2 cells were cultured in DMEM containing 2 mM/L glutamine, 10% FBS. MDA-MB435 cells were cultured in L-15 containing 2 mM/L glutamine, 10% FBS. SKOV-3 cells were cultured in McCoy's containing 2 mM/L glutamine, 10% FBS. Colo205, HL-60 and K562 cells were seeded in 96-well plates, 150 μL/well and 8000 cells/well, and the 96-well plates were pre-incubated in an incubator at 37° C. with 5% CO2, 100% relative humidity for 24 hours. HCT-116, MCF-7, NCI460, OVCAR-5, OVCAR-8, Hela, HepG 2 and MDA-MB435 cells were seeded in 96-well plates, 5000 cells/well; A549, 95D, HO8910, DU145, BXPC-3, PANC-1 and SKOV-3 cells were seeded in 96-well plates, 10000 cells/well, and the 96-well plates were pre-incubated in an incubator at 37° C. with 5% CO2, 100% relative humidity for 24 hours, to allow the cells to adhere.
(§2) 50 μL of pre-cooled 50% (mass/volume) TCA was added into the time zero control wells for each cell strain to fix the cells. To other wells, 50 μL of various concentrations of compounds were added, and maintained for 48 h, wherein each drug concentration was in triplicate, and there were blank control wells (cell culture medium without cells), drug-free control wells (with no drugs but the same volume of complete medium) and positive drug BSI-201 control wells, and the plates were incubated in an incubator at 37° C. with 5% CO2, full humidity (100% relative humidity) for 48 hours
(§3) 50 μL pre-cooled 50% (mass/volume) TCA was added onto the surface of the culture medium to fix the cells, which was then placed at 4° C. for 1 h. The supernatant was removed and each well was washed with deionized water for 5 times to remove TCA, serum proteins, etc. After dried in the air, about 100 μL enough amount of 0.4% SRB (formulated with 1% acetic acid) was added into each well, and was placed at room temperature for 20 to 30 min. Liquid in each well was discarded and each well was rapidly washed with 1% acetic acid for five times, to remove unbound dye until the unbound dye was completely rinsed clean. After dried in the air until the moisture was invisible, each well was added 200 μL Tris base to dissolve, shaken on a plate oscillator for 5 min or mixed by beating up and down with a pipette tip, and then measured on the multi-function instruction (M5 Detection System, MD Group Ltd.) with a detection wavelength of 515 nm, zero adjusted with 690 nm blank control.
(§4) The dose-response curve was plotted by XL-fit to determine the GI50 value.

human leukemia K562 = assay: In vitro SRB tumor cell growth inhibition (GI50); format: cell-based; settings: K562 cells
Method: as §1, §2, §3, §4

[2] = system: human ovarian cancer cell strain OVCAR-5; assay: In vitro SRB tumor cell growth inhibition (GI50); format: cell-based; settings: OVCAR-5 cells, 48 h
Method: as §1, §2, §3, §4

[3] = system: human lung cancer cell strain 95D; assay: In vitro SRB tumor cell growth inhibition (GI50); format: cell-based; settings: 48 h, 95D cells
Method: as §1, §2, §3, §4

[4] = system: human prostate cancer DU145; assay: In vitro SRB tumor cell growth inhibition (GI50); format: cell-based; settings: DU145 cells
Method: as §1, §2, §3, §4

[5] = system: human lung cancer cell strain NCI-460; assay: In vitro SRB tumor cell growth inhibition (GI50); format: cell-based; settings: NCI-460 cells
Method: as §1, §2, §3, §4

[6] = system: human prostate cancer BXPC-3; assay: In vitro SRB tumor cell growth inhibition (GI50); format: cell-based; settings: BXPC-3 cells, 48 h
Method: as §1, §2, §3, §4

[7] = system: human uterine cancer Hela; assay: In vitro SRB tumor cell growth inhibition (GI50); format: cell-based; settings: 48 h, Hela cells
Method: as §1, §2, §3, §4

[8] = system: human colon cancer cell strain HCT-116; assay: In vitro SRB tumor cell growth inhibition (GI50); format: cell-based; settings: HCT-116 cells
Method: as §1, §2, §3, §4

[9] = system: human ovarian cancer cell strain SKOV-3; assay: In vitro SRB tumor cell growth inhibition (GI50); format: cell-based; settings: SK-OV-3, SKOV-3 cells, 48 h
Method: as §1, §2, §3, §4

[10] = system: human colon cancer cell strain Colo205; assay: In vitro SRB tumor cell growth inhibition (GI50); format: cell-based; settings: Colo 205 cells, 48 h
Method: as §1, §2, §3, §4

human hepatoma HepG 2 = assay: In vitro SRB tumor cell growth inhibition (GI50); format: cell-based; settings: HepG2, HepG 2 cells, 48 h
Method: as §1, §2, §3, §4

[11] = system: human breast cancer cell strain MCF-7; assay: In vitro SRB tumor cell growth inhibition (GI50); format: cell-based; settings: MCF-7 cells
Method: as §1, §2, §3, §4

[12] = system: human ovarian cancer cell strain HO8910; assay: In vitro SRB tumor cell growth inhibition (GI50); format: cell-based; settings: HO-8910, HO8910 cells, 48 h
Method: as §1, §2, §3, §4

[13] = system: human ovarian cancer cell strain OVCAR-8; assay: In vitro SRB tumor cell growth inhibition (GI50); format: cell-based; settings: Homo sapiens, OVCAR-8, 48 h, OVCAR-8 cells
Method: as §1, §2, §3, §4

human leukemia HL-60 = assay: In vitro SRB tumor cell growth inhibition (GI50); format: cell-based; settings: HL-60 cells
Method: as §1, §2, §3, §4

[14] = system: human breast cancer cell strain MDA-MB435; assay: In vitro SRB tumor cell growth inhibition (GI50); format: cell-based; settings: Homo sapiens, MDA-MB-435, 48 h, MDA-MB435 cells
Method: as §1, §2, §3, §4

[15] = system: human lung cancer cell strain A549; assay: In vitro SRB tumor cell growth inhibition (GI50); format: cell-based; settings: A549 cells, 48 h
Method: as §1, §2, §3, §4

18 tumor cell strains = assay: In vitro efficacy screening, summary over the tumor cell strains; format: cell-based, human; settings: in vitro screening; for inhibitory effects on tumor cell proliferation (in words): BSI-201 as positive drug
Method: as §1, §2, §3, §4

Row | Compound | GI50 ([1]; Homo sapiens, PANC-1, 48 h) [µM] | GI50 (human leukemia K562; Homo sapiens, K562, 48 h) [µM] | GI50 [2] [µM] | GI50 ([3]; Homo sapiens, 95-D) [µM] | GI50 ([4]; Homo sapiens, DU-145, 48 h) [µM] | GI50 ([5]; Homo sapiens, NCI-460, 48 h) [µM] | GI50 [6] [µM] | GI50 ([7]; Homo sapiens, HeLa) [µM] | GI50 ([8]; Homo sapiens, HCT-116, 48 h) [µM] | GI50 [9] [µM] | GI50 [10] [µM] | GI50 (human hepatoma HepG 2) [µM] | GI50 ([11]; Homo sapiens, MCF7, 48 h) [µM] | GI50 [12] [µM] | GI50 [13] [µM] | GI50 (human leukemia HL-60; Homo sapiens, HL-60, 48 h) [µM] | GI50 [14] [µM] | GI50 [15] [µM] | efficacy in inhibition of tumor cell proliferation, graded in words against I-1 (18 tumor cell strains) | inhibitory effects on tumor cell proliferation (in words) (18 tumor cell strains) | other results
1 | C#Cc1ccc(C(=O)N(CC)CC)cc1[N+](=O)[O-] [Compound I-14, N,N-diethyl-4-ethynyl-3-nitrobenzamide] | 19.9 | 4.52 | 20.9 | 16.8 | 4.17 | 20.9 | 4.9 | 6.7 | 11.2 | 10.3 | 2.79 | 4.27 | 20.1 | 5 | 3.64 | 1.99 | 1.01 | 17.6 | slightly lower than that of I-1 | have inhibitory effects on tumor cell proliferation | 
2 | C#Cc1ccc(C(=O)NC(=O)OCC)cc1[N+](=O)[O-] [Compound I-3, N-ethoxycarbonyl-4-ethynyl-3-nitrobenzamide] | 2.48 | 7.03 |  | 4.38 | 3.79 | 37.3 | 7.5 | 9.9 | 5.6 | 15 | 4.32 | 12 | 6.81 | 4.03 | 16.3 | 3.2 | 4.16 | 25 | slightly lower than that of I-1 | have inhibitory effects on tumor cell proliferation | 
3 | C#Cc1ccc(C(=O)NCC)cc1[N+](=O)[O-] [Compound I-17, N-ethyl-4-ethynyl-3-nitrobenzamide] | 12.4 | 2.59 | 16.1 | 10.3 | 2.99 | 14 | 4.79 | 4.43 | 5.06 | 8.4 | 3.21 | 5.85 | 10.6 | 3.34 | 4.6 | 2.62 | 2.76 | 12.2 | slightly lower than that of I-1 | have inhibitory effects on tumor cell proliferation | 
4 | CC#Cc1ccc(C(=O)NC)cc1[N+](=O)[O-] [Compound I-26, N-methyl-4-(1-propynyl)-3-nitrobenzamide] |  |  |  |  |  |  |  |  |  | 105 |  |  |  |  |  |  |  | 130 |  | have inhibitory effects on tumor cell proliferation | 
5 | C#Cc1ccc(C(=O)NC(=O)OC)cc1[N+](=O)[O-] [Compound I-2, N-methoxycarbonyl-4-ethynyl-3-nitrobenzamide] | 13.7 | 2.8 | 4.24 | 3.62 | 3.31 | 33.8 | 7.42 | 7.1 |  | 3.81 | 7.03 | 11.3 | 2.08 | 3.44 | 14.1 | 2.02 | 11.7 | 8.04 | slightly lower than that of I-1 | have inhibitory effects on tumor cell proliferation | 
6 | C#Cc1ccc(C(=O)N2CCNCC2)cc1[N+](=O)[O-] [Compound I-23, (4-ethynyl-3-nitrophenyl)(piperazin-1-yl)ketone] |  |  |  |  |  |  |  |  |  | 31.3 |  |  |  |  |  |  |  | 56.8 | slightly lower than that of I-1 | have inhibitory effects on tumor cell proliferation | GI50 ([1]; 48 h): 23.8 µM; GI50 (human leukemia K562; 48 h): 16.2 µM; GI50 [3]: 10.9 µM; GI50 ([4]; 48 h): 3.44 µM; GI50 ([5]; 48 h): 25.6 µM; GI50 [7]: 11.2 µM; GI50 ([8]; 48 h): 12.4 µM; GI50 ([11]; 48 h): 9.24 µM; GI50 (human leukemia HL-60; 48 h): 12.3 µM
7 | C#Cc1ccc(C(=O)N2CCNCC2)cc1[N+](=O)[O-].Cl [Compound I-30, (4-ethynyl-3-nitrophenyl)(piperazin-1-yl)ketone hydrochloride] | 18.1 | 15.3 |  | 10.9 | 5.84 | 19.5 |  | 14 | 10.3 |  |  |  | 5.97 |  | 10.3 | 9.27 | 3.06 |  | slightly lower than that of I-1 | have inhibitory effects on tumor cell proliferation | 
8 | C#Cc1ccc(C(=O)NC(=O)OC(C)C)cc1[N+](=O)[O-] [Compound I-6, N-isopropoxycarbonyl-4-ethynyl-3-nitrobenzamide] |  | 20.2 |  |  |  |  |  |  |  |  | 9.09 |  |  |  |  |  |  |  | good effects on inhibition of tumor cell proliferation | have inhibitory effects on tumor cell proliferation | 
9 | C#Cc1ccc(C(=O)NC(=O)OCC(C)C)cc1[N+](=O)[O-] [Compound I-7, N-isobutoxycarbonyl-4-ethynyl-3-nitrobenzamide] |  | 10.1 |  |  |  |  |  |  |  |  | 3.15 |  |  |  |  |  | 9.67 |  | good effects on inhibition of tumor cell proliferation | have inhibitory effects on tumor cell proliferation | 
